Reference: ChEMBL document CHEMBL5728860, “[1,2,4]Triazolo[4,3-A]pyrazin-6(5H)-one derivatives” (2021)

Columns and labels:
[1] = target: Dual specificity calcium/calmodulin-dependent 3',5'-cyclic nucleotide phosphodiesterase 1A (Homo sapiens, UniProt P54750); test: Ca2+-Calmodulin Dependent PDE Enzyme Assays: PDE1B, PDE1A, and PDE1C are cloned and purified following standard protein generation procedures. The assay buffer is prepared to give a final concentration in the assay of 50 mM Tris-HCl, 50 mM MgCl2, 4 mM CaCl2, 0.1% Bovine serum albumin and 6 U/ml Calmodulin in water, at pH 7.5. The final enzyme concentration is 0.25, 0.074 and 0.0012 nM, for PDE1A, PDE1B and PDE1C respectively. The reactions are started by addition of the substrate, [3H]cAMP, to give a final concentration of 47 nM.
[2] = target: cGMP-inhibited 3',5'-cyclic phosphodiesterase 3A (Homo sapiens, UniProt Q14432); test: PDE Enzyme Assays Using [3H]cAMP as Substrate: The following phosphodiesterase activities are measured using [3H]cAMP as reaction substrate: human PDE3A (catalytic domain) and human PDE4D. Both enzymes are cloned and purified following standard procedures. The assay buffer is prepared to give a final concentration in the assay of 50 mM Tris-HCl, 8.3 mM MgCl2, 1.7 mM ethylenediaminetetraacetic acid (EDTA) and 0.1% Bovine serum albumin at pH 7.5. Final enzyme concentrations are 0.008 and 0.021 nM for PDE3A and PDE4D, respectively. Reactions are started by addition of the substrate, [3H]cAMP, to give a final concentration of 47 nM.
[3] = target: Rod cGMP-specific 3',5'-cyclic phosphodiesterase alpha/beta (Homo sapiens, UniProt P16499+P35913); test: PDE Enzyme Assays Using [3H]cGMP as Substrate: The following phosphodiesterase activities are measured using [3H]cGMP as reaction substrate: human PDE6A/6B. The catalytic active form of human PDE6 is a dimer composed of a α (human PDE6A) and β subunits (human PDE6B). The dimer of human PDE6A/6B is produced by the coexpression and purification strategy, using two purification steps, i.e., NiNTA and anti-FLAG Sepharose chromatography. The assay buffer is prepared to give a final concentration in the assay of 50 mM Tris-HCl, 8.3 mM MgCl2, 1.7 mM EDTA and 0.1% Bovine serum albumin at pH 7.5. The final enzyme concentration is 5 nM. The reactions are started by addition of the substrate, [3H]cGMP, to give a final concentration of 80 nM.; assay type: protein-complex assay
Sequence of Rod cGMP-specific 3',5'-cyclic phosphodiesterase alpha/beta (P35913 whole entry): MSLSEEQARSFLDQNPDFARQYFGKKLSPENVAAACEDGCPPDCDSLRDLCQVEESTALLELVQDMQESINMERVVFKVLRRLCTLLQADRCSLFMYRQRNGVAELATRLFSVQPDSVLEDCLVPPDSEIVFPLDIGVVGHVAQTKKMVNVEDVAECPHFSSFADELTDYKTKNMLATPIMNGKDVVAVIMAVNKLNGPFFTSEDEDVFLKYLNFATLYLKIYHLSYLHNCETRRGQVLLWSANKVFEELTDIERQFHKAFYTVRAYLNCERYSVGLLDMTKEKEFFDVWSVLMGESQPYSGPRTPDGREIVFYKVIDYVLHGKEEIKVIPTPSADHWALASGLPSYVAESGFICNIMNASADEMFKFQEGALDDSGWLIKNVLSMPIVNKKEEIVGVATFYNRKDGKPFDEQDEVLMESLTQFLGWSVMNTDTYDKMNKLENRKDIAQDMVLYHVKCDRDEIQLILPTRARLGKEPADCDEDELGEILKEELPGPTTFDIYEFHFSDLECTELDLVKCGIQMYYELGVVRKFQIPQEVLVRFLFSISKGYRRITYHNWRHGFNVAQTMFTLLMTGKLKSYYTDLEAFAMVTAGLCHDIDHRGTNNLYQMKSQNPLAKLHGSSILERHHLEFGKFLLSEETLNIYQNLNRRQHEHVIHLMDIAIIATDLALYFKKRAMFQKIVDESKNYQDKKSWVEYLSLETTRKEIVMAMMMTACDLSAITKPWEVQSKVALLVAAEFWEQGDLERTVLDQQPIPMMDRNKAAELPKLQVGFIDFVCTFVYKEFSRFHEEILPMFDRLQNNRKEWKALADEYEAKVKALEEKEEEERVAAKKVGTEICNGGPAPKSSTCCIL
Sequence of Rod cGMP-specific 3',5'-cyclic phosphodiesterase alpha/beta (P16499 whole entry): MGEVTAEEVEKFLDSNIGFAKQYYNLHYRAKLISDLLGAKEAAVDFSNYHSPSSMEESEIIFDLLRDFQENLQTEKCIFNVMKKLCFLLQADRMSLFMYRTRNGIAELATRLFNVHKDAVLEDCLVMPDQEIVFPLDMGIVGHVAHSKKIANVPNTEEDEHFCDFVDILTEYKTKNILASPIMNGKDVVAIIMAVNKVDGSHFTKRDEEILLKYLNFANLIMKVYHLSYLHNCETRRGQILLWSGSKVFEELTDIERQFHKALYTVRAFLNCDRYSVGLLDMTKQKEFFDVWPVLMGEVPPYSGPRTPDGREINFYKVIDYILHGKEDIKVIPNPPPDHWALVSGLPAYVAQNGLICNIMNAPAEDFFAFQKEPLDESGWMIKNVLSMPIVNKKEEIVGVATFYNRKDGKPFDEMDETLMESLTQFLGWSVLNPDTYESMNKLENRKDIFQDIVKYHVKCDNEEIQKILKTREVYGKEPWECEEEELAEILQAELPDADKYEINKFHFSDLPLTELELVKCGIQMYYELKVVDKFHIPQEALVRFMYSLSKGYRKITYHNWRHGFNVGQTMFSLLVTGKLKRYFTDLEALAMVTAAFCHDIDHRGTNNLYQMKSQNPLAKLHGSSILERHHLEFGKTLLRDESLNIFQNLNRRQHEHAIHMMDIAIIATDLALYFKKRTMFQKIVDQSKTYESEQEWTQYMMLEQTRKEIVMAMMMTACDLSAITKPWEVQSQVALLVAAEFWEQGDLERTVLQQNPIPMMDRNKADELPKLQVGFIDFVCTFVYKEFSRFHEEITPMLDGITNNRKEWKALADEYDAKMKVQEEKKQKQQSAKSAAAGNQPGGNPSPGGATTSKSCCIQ

Sequence of Dual specificity calcium/calmodulin-dependent 3',5'-cyclic nucleotide phosphodiesterase 1A (P54750 whole entry): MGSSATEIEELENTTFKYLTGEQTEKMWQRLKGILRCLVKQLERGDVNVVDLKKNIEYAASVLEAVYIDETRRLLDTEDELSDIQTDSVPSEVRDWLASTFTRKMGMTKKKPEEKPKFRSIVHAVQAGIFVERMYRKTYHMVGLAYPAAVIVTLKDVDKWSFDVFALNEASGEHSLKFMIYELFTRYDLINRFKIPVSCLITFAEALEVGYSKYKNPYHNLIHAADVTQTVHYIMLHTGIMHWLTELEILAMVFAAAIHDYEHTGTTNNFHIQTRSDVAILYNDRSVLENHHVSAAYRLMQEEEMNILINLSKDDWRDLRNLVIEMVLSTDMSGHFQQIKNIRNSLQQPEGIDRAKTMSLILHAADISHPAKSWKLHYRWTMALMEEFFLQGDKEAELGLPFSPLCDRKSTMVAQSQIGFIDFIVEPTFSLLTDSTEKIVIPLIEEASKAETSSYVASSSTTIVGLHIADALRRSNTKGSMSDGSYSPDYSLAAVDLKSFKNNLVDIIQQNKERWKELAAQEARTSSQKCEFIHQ
Sequence of cGMP-inhibited 3',5'-cyclic phosphodiesterase 3A (Q14432 whole entry, the tested form may be a part): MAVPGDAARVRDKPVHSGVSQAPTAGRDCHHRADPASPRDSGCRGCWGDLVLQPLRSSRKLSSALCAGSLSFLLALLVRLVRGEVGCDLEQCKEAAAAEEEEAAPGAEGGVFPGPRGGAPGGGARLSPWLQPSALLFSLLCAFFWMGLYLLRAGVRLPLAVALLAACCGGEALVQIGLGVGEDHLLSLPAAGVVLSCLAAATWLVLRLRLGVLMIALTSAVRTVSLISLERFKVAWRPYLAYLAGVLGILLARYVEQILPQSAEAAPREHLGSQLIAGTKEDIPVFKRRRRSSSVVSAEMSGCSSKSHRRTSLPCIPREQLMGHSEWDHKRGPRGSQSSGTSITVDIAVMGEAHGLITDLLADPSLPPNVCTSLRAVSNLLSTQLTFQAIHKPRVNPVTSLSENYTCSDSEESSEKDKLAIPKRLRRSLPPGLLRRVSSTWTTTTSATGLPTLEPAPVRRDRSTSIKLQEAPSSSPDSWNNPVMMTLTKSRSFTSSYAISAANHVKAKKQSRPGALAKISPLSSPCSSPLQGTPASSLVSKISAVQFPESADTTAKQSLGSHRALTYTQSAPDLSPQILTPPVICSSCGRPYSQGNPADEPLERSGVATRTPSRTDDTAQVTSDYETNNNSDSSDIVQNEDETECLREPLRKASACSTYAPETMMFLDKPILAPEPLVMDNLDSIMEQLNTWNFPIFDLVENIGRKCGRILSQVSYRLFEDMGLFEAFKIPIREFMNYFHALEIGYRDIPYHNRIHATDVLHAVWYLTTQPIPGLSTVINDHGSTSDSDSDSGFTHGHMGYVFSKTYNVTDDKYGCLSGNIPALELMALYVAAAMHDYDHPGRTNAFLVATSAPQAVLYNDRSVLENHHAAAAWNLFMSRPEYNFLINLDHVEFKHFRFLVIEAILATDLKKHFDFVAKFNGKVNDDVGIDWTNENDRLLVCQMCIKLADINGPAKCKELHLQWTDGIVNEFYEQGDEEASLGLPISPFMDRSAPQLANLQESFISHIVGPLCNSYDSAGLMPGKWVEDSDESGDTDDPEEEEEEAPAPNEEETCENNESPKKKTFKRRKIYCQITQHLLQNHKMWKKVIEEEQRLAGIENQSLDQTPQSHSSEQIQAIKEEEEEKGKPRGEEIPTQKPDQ

Structure (SMILES) | IC50 [1] [nM] | IC50 [2] [nM] | IC50 [3] [nM]
CCCCn1c(=O)c2nnc(C3(C4CC4)CC3)n2c2ncc(CO)cc21 | 0.996 | > 100000 | 3850
CCCCn1c(=O)c2nnc(C3(C4CC4)CC3)n2c2ncc(CC)cc21 | 0.214 | > 100000 | 982
